Data from PMC10223884, “Oligosaccharide Ligands of Galectin-4 and Its Subunits: Multivalency Scores Highly” (Molecules, 2023).

Assays:
Gal-4C = molecular target: Gal-4C; design: method as in PMID 26828567, PMID 26077389; settings: fluorescence anisotropy, read-out: binding constant; cited from earlier work
Gal-4NL [1] = molecular target: T1, Gal-4NL (Homo sapiens, UniProt P56470); assay: competitive ELISA, inhibition of binding of Gal-4NL subunit to immobilized ASF
T1 construct: designated as Gal-4NL (aa 1-160), and Gal-4CL (aa 169-323), respectively; made in house; host or cells: E. coli Rosetta (DE3) pLysS
T1 sequence (P56470 1-160): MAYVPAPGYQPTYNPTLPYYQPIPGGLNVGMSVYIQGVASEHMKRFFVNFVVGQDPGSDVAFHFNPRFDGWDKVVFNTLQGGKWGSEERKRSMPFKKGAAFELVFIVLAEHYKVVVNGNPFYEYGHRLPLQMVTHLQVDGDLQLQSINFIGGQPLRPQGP
Protocol: (§1) To design the ELISA method, we first examined the direct binding of the whole Gal-4, Gal-4NL, and Gal-4-CL to standard glycoprotein asialofetuin (ASF, MW 48.4 kDa), which carries up to nine LacNAc epitopes. The ASF was immobilized by hydrophobic interaction in microtiter-plate wells, and the binding of increasing concentrations of Gal-4 proteins was quantified by colorimetric immunodetection using horseradish peroxidase conjugated to an anti-His-tag antibody. The apparent dissociation constants (KD) were calculated from the non-linear regression of the binding curves (Figure 3). […] While for the Gal-4 ELISA measurement we used the concentration of Gal-4 of 2.5 μM, for both subunits, it was 25 μM. […] The Gal-4 proteins were incubated with increasing concentrations of the respective inhibitors, and the concentration-dependent inhibition of the binding to the immobilized ASF was quantified using spectrophotometric colorimetric immunodetection (HRP-conjugated anti-His-tag antibody). The respective half-maximal inhibition constants (IC50) were calculated from the non-linear regression of the sigmoidal curves (Figure 3), and they are shown in Table 2 and Table 3.
(§2) Each incubation step was followed by washing the wells with 3 × 250 µL phosphate-buffered saline (PBS) containing 0.05% Tween® 20. In total, 0.1 µM ASF in PBS (50 µL/well) was coated onto microtiter plates (Nunc Immuno Sorb, ThermoFisher Scientific, Waltham, MA, USA) overnight. After blocking the wells with 2 mg/mL bovine serum albumin (BSA) in PBS buffer (250 µL/well, 1 h), serial dilutions of the inhibitors in PBS buffer containing 2 mM EDTA (EPBS) were incubated with Gal-4 (2.5 µM final dimer concentration) or its subunits, Gal-4CL and Gal-4NL (25 µM final monomer concentration) for 2 h (50 µL/well). The residual bound galectin was labeled with an anti-His-antibody conjugated with horseradish peroxidase (HRP) (Santa Cruz Biotechnology, Heidelberg, Germany; 1:999 dilution in PBS). The colorimetric reaction with TMB One substrate solution (Kem-En-Tec, Taastrup, Denmark; 50 µL/well) was stopped with 3 M hydrochloric acid (HCl) (50 µL/well) and quantified spectrophotometrically at 450 nm (Sunrise; Tecan Group Ltd., Männedorf, Switzerland). The values of half-maximal inhibitory concentrations (IC50) were calculated by non-linear regression (dose–response inhibition-variable slope) of sigmoidal curves from a minimum of three independent experiments using GraphPad Prism 8.4.3 (GraphPad Software, San Diego, CA, USA).

Gal-4NL [2] = molecular target: Gal-4NL; design: method as in PMID 33968903; settings: ITC; cited from earlier work
Gal-4CL [3] = molecular target: T2, Gal-4CL (Homo sapiens, UniProt P56470); assay: competitive ELISA, inhibition of binding of Gal-4CL subunit to immobilized ASF
T2 construct: designated as Gal-4NL (aa 1-160), and Gal-4CL (aa 169-323), respectively; made in house; host or cells: E. coli Rosetta (DE3) pLysS
T2 sequence (P56470 169-323): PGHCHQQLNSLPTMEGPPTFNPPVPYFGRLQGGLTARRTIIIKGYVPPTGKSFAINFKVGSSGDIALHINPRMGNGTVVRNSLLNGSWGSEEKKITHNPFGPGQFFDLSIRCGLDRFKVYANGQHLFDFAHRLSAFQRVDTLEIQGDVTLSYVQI
Protocol: as §1, §2

Gal-4N = molecular target: Gal-4N; design: method as in PMID 26828567, PMID 26077389; settings: fluorescence anisotropy, read-out: binding constant; cited from earlier work
Gal-4 [4] = molecular target: T3, Gal-4 (Homo sapiens, UniProt P56470); assay: competitive ELISA, inhibition of binding of whole Gal-4 to immobilized ASF
T3 construct: made in house; host or cells: Escherichia coli Rosetta (DE3) pLysS
T3 sequence (P56470 1-323): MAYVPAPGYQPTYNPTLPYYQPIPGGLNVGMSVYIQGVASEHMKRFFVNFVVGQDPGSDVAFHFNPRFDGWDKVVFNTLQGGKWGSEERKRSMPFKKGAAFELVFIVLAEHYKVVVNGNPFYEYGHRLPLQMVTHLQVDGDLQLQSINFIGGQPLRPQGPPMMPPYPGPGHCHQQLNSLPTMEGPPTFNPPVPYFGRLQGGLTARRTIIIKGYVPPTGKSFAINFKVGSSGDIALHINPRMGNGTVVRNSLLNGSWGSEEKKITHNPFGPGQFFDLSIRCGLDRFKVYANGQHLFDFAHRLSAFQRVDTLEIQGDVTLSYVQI
Protocol: as §1, §2

Gal-4CL [5] = molecular target: T2, Gal-4CL; assay: direct ELISA, binding of Gal-4CL to immobilized ASF; settings: read-out: apparent KD
Protocol: (§3) To design the ELISA method, we first examined the direct binding of the whole Gal-4, Gal-4NL, and Gal-4-CL to standard glycoprotein asialofetuin (ASF, MW 48.4 kDa), which carries up to nine LacNAc epitopes. The ASF was immobilized by hydrophobic interaction in microtiter-plate wells, and the binding of increasing concentrations of Gal-4 proteins was quantified by colorimetric immunodetection using horseradish peroxidase conjugated to an anti-His-tag antibody. The apparent dissociation constants (KD) were calculated from the non-linear regression of the binding curves (Figure 3). […] The Gal-4 proteins were incubated with increasing concentrations of the respective inhibitors, and the concentration-dependent inhibition of the binding to the immobilized ASF was quantified using spectrophotometric colorimetric immunodetection (HRP-conjugated anti-His-tag antibody). The respective half-maximal inhibition constants (IC50) were calculated from the non-linear regression of the sigmoidal curves (Figure 3), and they are shown in Table 2 and Table 3.
(§4) The apparent dissociation constant (KD) of binding of the whole Gal-4 or its subunits to ASF was determined using direct enzyme-linked immunosorbent assay (ELISA), with washing steps as specified above. […] Residual galectins bound to the wells were labeled with anti-His-antibody conjugated with HRP, and evaluated as above.

Gal-4 [6] = molecular target: T3, Gal-4; assay: direct ELISA, binding of whole Gal-4 to immobilized ASF; settings: read-out: apparent KD
Protocol: as §3, §4

Gal-4NL [7] = molecular target: T1, Gal-4NL; assay: direct ELISA, binding of Gal-4NL to immobilized ASF; settings: read-out: apparent KD
Protocol: as §3, §4

[8] = molecular target: T4, lactosyl-decorated neo-glycoprotein 12 (human serum albumin carrier) (human, UniProt P02768 25-609, 9.6 lactosyl residues (MALDI-TOF, 72,151 Da) attached by a thiourea linker and diethyl-squarate linkage; sites not stated); assay: BLI; His-tagged galectins (2 µg/mL, PBS with 0.05% Tween-20) immobilised on Ni-NTA biosensors; serially diluted neo-glycoprotein 12 in solution; 25 °C, 800 rpm; steady-state analysis; settings: both partners purified
T4 construct: Human serum albumin, carrier of the synthetic lactosyl ligands; source: HSA coupled with squarate monoamide ester 11 (tetraborate buffer pH 9.0, 72 h), washed with water by ultracentrifugation

[9] = molecular target: T5, asialofetuin (standard glycoprotein, MW 48.4 kDa) (UniProt P12763 19-359, glycoprotein without sialic acid; carries up to nine LacNAc epitopes); assay: ELISA; direct ELISA; ASF (0.1 µM in PBS) coated on microtiter plate overnight, blocked with BSA; increasing concentrations of Gal-4 or its subunits, 2 h; detected with HRP-conjugated anti-His antibody; apparent KD from non-linear regression; settings: both partners purified
T5 construct: Asialofetuin (desialylated fetuin), MW 48.4 kDa; Commercial asialofetuin is commonly from fetal calf serum; also called ASF
T5 sequence (looked up): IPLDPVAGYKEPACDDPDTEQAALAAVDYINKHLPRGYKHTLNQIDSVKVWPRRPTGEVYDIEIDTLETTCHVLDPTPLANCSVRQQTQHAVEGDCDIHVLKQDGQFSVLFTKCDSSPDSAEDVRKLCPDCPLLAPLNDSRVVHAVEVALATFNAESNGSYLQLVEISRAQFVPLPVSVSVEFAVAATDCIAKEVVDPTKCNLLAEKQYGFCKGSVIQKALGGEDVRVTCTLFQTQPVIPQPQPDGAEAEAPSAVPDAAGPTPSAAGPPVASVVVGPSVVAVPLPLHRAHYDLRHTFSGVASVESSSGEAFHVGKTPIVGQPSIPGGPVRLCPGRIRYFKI

[10] = molecular target: the molecule itself; assay: dynamic light scattering; Gal-4 and its subunits at 25 µM, 25 °C, Zetasizer Nano S90; size distribution by intensity and by volume

T4 sequence (P02768 25-609): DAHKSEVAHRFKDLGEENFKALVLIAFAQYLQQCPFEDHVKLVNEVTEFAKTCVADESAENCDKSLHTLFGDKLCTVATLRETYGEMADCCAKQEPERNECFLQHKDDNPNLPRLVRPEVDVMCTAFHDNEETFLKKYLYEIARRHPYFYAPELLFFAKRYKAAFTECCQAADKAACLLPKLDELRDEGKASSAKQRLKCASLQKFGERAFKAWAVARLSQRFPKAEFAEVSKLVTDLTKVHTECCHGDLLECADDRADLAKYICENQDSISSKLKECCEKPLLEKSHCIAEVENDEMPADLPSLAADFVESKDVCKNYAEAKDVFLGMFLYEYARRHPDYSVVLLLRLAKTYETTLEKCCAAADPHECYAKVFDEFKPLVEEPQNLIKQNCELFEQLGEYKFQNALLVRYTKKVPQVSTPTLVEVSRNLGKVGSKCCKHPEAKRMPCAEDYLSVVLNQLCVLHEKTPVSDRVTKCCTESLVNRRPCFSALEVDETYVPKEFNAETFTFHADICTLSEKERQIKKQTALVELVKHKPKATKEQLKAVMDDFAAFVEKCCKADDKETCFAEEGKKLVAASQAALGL

In the case of `CC(=O)N[C@H]1[C@@H](O[C@H]2[C@@H](O)[C@@H](CO)O[C@@H](O[C@H]3[C@H](O)[C@@H](O)C(O)O[C@@H]3CO)[C@@H]2O[C@@H]2O[C@@H](C)[C@@H](O)[C@@H](O)[C@@H]2O)O[C@H](CO)[C@H](O)[C@@H]1O` (some centres unmarked) [blood-group antigen A (5), blood-group antigen A type 6], the Kd (Gal-4C) is given as 75 µM, the “rp Gal-4NL, relative potency (IC50 (lactose)/IC50 (ligand))” value (Gal-4NL [1]; Gal-4NL) is given as 130 and the “fold stronger inhibitor of Gal-4NL than blood-group antigen B” value (Gal-4NL [1]; Gal-4NL, ELISA) is given as 12 fold. The IC50 (Gal-4NL [1]; competitive ELISA, Gal-4NL 25 µM, immobilized ASF) was 22 ± 1 µM, the Kd (Gal-4NL [2]) was 86 µM and the “rp Gal-4CL, relative potency (IC50 (lactose)/IC50 (ligand))” value (Gal-4CL [3]; Gal-4CL) was 320. The IC50 (Gal-4CL [3]; competitive ELISA, Gal-4CL 25 µM, immobilized ASF) was 27 ± 5 µM, the Kd (Gal-4N) was 164 µM and the IC50 (Gal-4 [4]; competitive ELISA, Gal-4 2.5 µM, immobilized ASF) was 50 ± 20 µM. For the same molecule, the “rp, relative potency (IC50 (lactose)/IC50 (ligand))” value (Gal-4 [4]; whole Gal-4) was 48.

For asialofetuin [ASF], the Kd (Gal-4CL [5]) was 19 ± 2 µM, the Kd (Gal-4 [6]) was 3.3 ± 1.1 µM and the Kd (Gal-4NL [7]) was 38 ± 3 µM.

B1: N-terminal subunit of Gal-4 with 10 linker residues (Gal-4NL, aa 1-160) (domain or fragment, human, UniProt P56470 1-160, looked up)
chain: T1 sequence (P56470 1-160)
notes: Galectin-4, human, N-terminal CRD (aa 1-150) with 10 further residues of the inter-domain linker at the C-terminus (aa 1-160); made by PCR from the Gal-4 plasmid, NdeI/XhoI; not shown: His6, N-terminal, kept
Work on B1 yielded a Kd [8] of 1 ± 0.2 µM and a Kd [9] of 38 ± 3 µM.

B2: C-terminal subunit of Gal-4 with 10 linker residues (Gal-4CL, aa 169-323) (domain or fragment, human, UniProt P56470 169-323, looked up)
chain: T2 sequence (P56470 169-323)
notes: Galectin-4, human, C-terminal CRD (aa 179-323) with 10 further residues of the inter-domain linker at the N-terminus (aa 169-323); made by PCR from the Gal-4 plasmid, NdeI/XhoI; not shown: His6, N-terminal, kept
In the case of B2, the binding result [10] is reported as “binds” and the Kd [9] is reported as 19 ± 2 µM.
